Measured values taken from the CheMixHub ionic liquid set.
± gives the uncertainty stated by the source.

Test: xn = mol fraction of the nth substance listed

CCCn1cc[n+](C)c1C.F[B-](F)(F)F + O
101 kPa
Settings	viscosity [mPa·s]
298.15 K, x2 = 0.1932	134.9 ± 9.3
303.15 K, x2 = 0.1932	103.3 ± 5.3
303.15 K, x2 = 0.3944	40.4 ± 1.1
303.15 K, x2 = 0.4987	25.5 ± 0.68
308.15 K, x2 = 0.2833	53.2 ± 1.2
308.15 K, x2 = 0.3944	32.95 ± 0.88
308.15 K, x2 = 0.5995	13.58 ± 0.37
318.15 K, x2 = 0.0939	78.6 ± 2.9
318.15 K, x2 = 0.1932	52.1 ± 1.2
333.15 K, x2 = 0.0939	42.5 ± 1.1
333.15 K, x2 = 0.5995	6.65 ± 0.19
333.15 K, x2 = 0.6985	4.37 ± 0.13
343.15 K, x2 = 0.0939	29.96 ± 0.8

CC[n+]1ccccc1.N#C[N-]C#N + O
100 kPa
Settings	electrical conductivity [S/m]	viscosity [mPa·s]
298.15 K, x1 = 0.9411	2.15 ± 0.046	–
298.15 K, x1 = 0.9677	1.94 ± 0.043	–
298.15 K, x2 = 0.01044	–	16.52 ± 0.36
303.15 K, x1 = 0.9542	2.27 ± 0.05	–
303.15 K, x1 = 0.9756	–	13.97 ± 0.3
308.15 K, x1 = 0.9542	2.58 ± 0.057	–
308.15 K, x2 = 0.01044	–	12.55 ± 0.27
313.15 K, x1 = 0.9355	–	10.08 ± 0.22
313.15 K, x1 = 0.9619	–	10.49 ± 0.23
313.15 K, x1 = 0.9677	2.82 ± 0.063	–
313.15 K, x2 = 0.01044	–	11.02 ± 0.24
318.15 K, x1 = 0.9542	3.25 ± 0.072	–
323.15 K, x1 = 0.9756	–	8.27 ± 0.18
328.15 K, x1 = 0.9756	–	7.44 ± 0.16
333.15 K, x1 = 0.9283	4.91 ± 0.11	–
333.15 K, x1 = 0.9411	4.81 ± 0.1	–
333.15 K, x1 = 0.9677	4.61 ± 0.1	–
338.15 K, x1 = 0.9355	–	5.76 ± 0.12
338.15 K, x1 = 0.9485	–	5.86 ± 0.13
338.15 K, x1 = 0.9756	–	6.1 ± 0.1

Cn1cc[n+](CCO)c1.O=S(=O)([O-])C(F)(F)C(F)(F)C(F)(F)C(F)(F)F + O
101 kPa
Settings	electrical conductivity [S/m]	viscosity [mPa·s]
298.15 K, x1 = 0.02322	4.64 ± 0.93	2.48 ± 0.1
298.15 K, x1 = 0.02741	4.83 ± 0.97	2.81 ± 0.11
298.15 K, x1 = 0.05114	–	5.32 ± 0.22
298.15 K, x1 = 0.05966	–	6.3 ± 0.26
298.15 K, x1 = 0.09831	4.54 ± 0.91	11.5 ± 0.47
298.15 K, x1 = 0.1816	2.58 ± 0.52	27.4 ± 1.1
298.15 K, x1 = 0.6778	0.116 ± 0.023	256 ± 12
308.15 K, x1 = 0.04384	–	3.39 ± 0.14
308.15 K, x1 = 0.0644	–	5.13 ± 0.21
308.15 K, x1 = 0.06999	–	5.73 ± 0.23
308.15 K, x1 = 0.07565	–	6.11 ± 0.25
308.15 K, x1 = 0.08994	–	7.61 ± 0.31
308.15 K, x1 = 0.1303	–	11.95 ± 0.49
308.15 K, x1 = 0.1442	–	13.84 ± 0.57
308.15 K, x1 = 0.2068	–	21.6 ± 0.89
308.15 K, x1 = 0.3955	–	53.9 ± 2.2
318.15 K, x1 = 0.02322	–	1.601 ± 0.065
318.15 K, x1 = 0.03214	–	2.096 ± 0.085
318.15 K, x1 = 0.04384	–	2.67 ± 0.11
318.15 K, x1 = 0.05966	–	3.7 ± 0.15
318.15 K, x1 = 0.09831	–	6.23 ± 0.26
318.15 K, x1 = 0.1303	–	8.76 ± 0.36
318.15 K, x1 = 0.2329	–	17.91 ± 0.74

C[n+]1ccn(CCCC#N)c1.O=S(=O)([O-])C(F)(F)F + O=C1CCCO1
100 kPa
Settings	electrical conductivity [S/m]
288.15 K, x1 = 0.3003	0.53 ± 0.01
288.15 K, x1 = 0.6002	0.186 ± 0.01
288.15 K, x1 = 1	0.023 ± 0.01
293.15 K, x1 = 0.9004	0.069 ± 0.01
298.15 K, x1 = 0.9004	0.092 ± 0.01
303.15 K, x1 = 0.4999	0.459 ± 0.01
303.15 K, x1 = 0.8002	0.179 ± 0.01
303.15 K, x1 = 0.9004	0.12 ± 0.01
308.15 K, x1 = 0.6002	0.408 ± 0.01
308.15 K, x1 = 1	0.083 ± 0.01
313.15 K, x1 = 0.3003	1.08 ± 0.011
313.15 K, x1 = 0.6002	0.476 ± 0.01
313.15 K, x1 = 0.7001	0.372 ± 0.01
318.15 K, x1 = 0.8002	0.323 ± 0.01
318.15 K, x1 = 0.9004	0.234 ± 0.01
318.15 K, x1 = 1	0.134 ± 0.01
323.15 K, x1 = 0.3003	1.344 ± 0.013
323.15 K, x1 = 0.8002	0.384 ± 0.01
323.15 K, x1 = 0.9004	0.281 ± 0.01
323.15 K, x1 = 1	0.167 ± 0.01
333.15 K, x1 = 0.3999	1.323 ± 0.013
338.15 K, x1 = 0.3003	1.79 ± 0.018
338.15 K, x1 = 1	0.3 ± 0.01
343.15 K, x1 = 0.7001	0.851 ± 0.01

CCCC[P+](CC)(CC)CC.N#Cc1ccc[n-]1 + OCC(O)CO
100 kPa
Settings	electrical conductivity, 293.15 K [S/m]	viscosity, 293.15 K [mPa·s]	viscosity, 298.15 K [mPa·s]	viscosity, 303.15 K [mPa·s]	viscosity, 313.15 K [mPa·s]
x1 = 0.002	0.0013 ± 0.0001	–	–	–	–
x1 = 0.004	0.0027 ± 0.0003	1395 ± 210	880 ± 130	562 ± 83	226 ± 33
x1 = 0.006	0.0041 ± 0.0004	–	–	–	–
x1 = 0.008	0.0055 ± 0.0006	–	–	–	–
x1 = 0.011	0.0073 ± 0.0007	–	–	–	–
x1 = 0.014	0.009 ± 0.0009	–	–	–	–
x1 = 0.018	0.0106 ± 0.0011	1500 ± 230	950 ± 140	599 ± 89	234 ± 34
x1 = 0.021	0.0118 ± 0.0012	–	–	–	–
x1 = 0.026	0.0135 ± 0.0014	–	–	–	–
x1 = 0.029	0.0143 ± 0.0014	–	–	–	–
x1 = 0.033	0.0151 ± 0.0015	–	–	–	–
x1 = 0.04	0.0162 ± 0.0016	1598 ± 250	1015 ± 150	648 ± 96	256 ± 38
x1 = 0.047	0.0175 ± 0.0018	–	–	–	–
x1 = 0.058	0.0181 ± 0.0018	1701 ± 260	1080 ± 170	690 ± 100	282 ± 41
x1 = 0.068	0.0188 ± 0.0019	–	–	–	–
x1 = 0.08	0.0186 ± 0.0019	1713 ± 270	1086 ± 170	690 ± 100	277 ± 41
x1 = 0.104	0.0187 ± 0.0019	1609 ± 250	1023 ± 160	655 ± 98	268 ± 39
x1 = 0.129	0.0185 ± 0.0019	1486 ± 230	930 ± 140	569 ± 85	222 ± 33
x1 = 0.187	0.018 ± 0.0018	1202 ± 180	770 ± 120	483 ± 71	200 ± 29
x1 = 0.259	0.0182 ± 0.0018	930 ± 140	603 ± 90	386 ± 57	166 ± 24
x1 = 0.34	0.0225 ± 0.0023	740 ± 110	487 ± 72	318 ± 46	142 ± 21
x1 = 0.442	0.0297 ± 0.0031	589 ± 88	398 ± 59	265 ± 39	123 ± 18
x1 = 0.577	0.0413 ± 0.0043	479 ± 71	323 ± 47	220 ± 32	107 ± 15
x1 = 0.743	0.0623 ± 0.0063	359 ± 52	242 ± 35	168 ± 24	81 ± 12
x1 = 0.85	0.0878 ± 0.0089	250 ± 36	175 ± 25	123 ± 17	62 ± 9
x1 = 1	0.147 ± 0.015	187 ± 27	137 ± 19	104 ± 15	62 ± 9

CCCC[P+](CC)(CC)CC.N#Cc1ccc[n-]1 + OCCN(CCO)CCO
100 kPa
Settings	electrical conductivity [S/m]	viscosity [mPa·s]
293.15 K, x1 = 0.005	0.0013 ± 0.0001	–
293.15 K, x1 = 0.012	0.0027 ± 0.0003	–
293.15 K, x1 = 0.029	0.0046 ± 0.0005	980 ± 150
293.15 K, x1 = 0.035	0.005 ± 0.0005	–
293.15 K, x1 = 0.223	–	810 ± 120
293.15 K, x1 = 0.459	0.0205 ± 0.0021	–
298.15 K, x1 = 0.018	–	629 ± 94
303.15 K, x1 = 0.223	–	341 ± 50
303.15 K, x1 = 0.508	–	278 ± 40

CCCCCC[n+]1ccn(C)c1.[Cl-] + OCCO
101 kPa
Settings	viscosity [mPa·s]
293.15 K, x2 = 0.4977	172.9 ± 5
293.15 K, x2 = 0.6002	83.9 ± 1.9
303.15 K, x2 = 0	4206 ± 320
313.15 K, x1 = 0.0188	10.05 ± 0.21
313.15 K, x2 = 0.6987	21.31 ± 0.46
313.15 K, x2 = 0.8897	11.47 ± 0.24
313.15 K, x2 = 0.9642	10.19 ± 0.22
313.15 K, x2 = 0.9761	10.09 ± 0.21
323.15 K, x1 = 0.0061	7.09 ± 0.15
323.15 K, x2 = 0	783 ± 38
323.15 K, x2 = 0.6002	24.77 ± 0.53
323.15 K, x2 = 0.6987	15.34 ± 0.33
323.15 K, x2 = 0.8998	8.19 ± 0.17
323.15 K, x2 = 0.9642	7.38 ± 0.16
333.15 K, x1 = 0.0061	5.28 ± 0.11
333.15 K, x2 = 0.1526	191.8 ± 5.8
333.15 K, x2 = 0.4977	29.57 ± 0.64
333.15 K, x2 = 0.6987	11.45 ± 0.25
333.15 K, x2 = 0.9532	5.61 ± 0.12
